According to patent US5043450A, “8-alkoxyquinolonecarboxylic acid and salts thereof” (priority 1986, dated 1991):

How the values were obtained:
Type in all cases: cell-based
[1] = test system: Klebsiella pneumoniae KY(GN)6445; assay: Antibacterial spectra, MIC
P. aeruginosa IID 1210 = assay: Antibacterial spectra, MIC; details: Pseudomonas aeruginosa, IID1210; 10^6 cells/ml; Gram -; read-out: MIC
F. varium KYA 8501 = assay: Antibacterial spectra, MIC; details: Fusobacterium varium, KYA8501; 10^6 cells/ml; Gram -; read-out: MIC
S. pneumoniae IID 552 = assay: Antibacterial spectra, MIC; details: Streptococcus pneumoniae, IID552; 10^6 cells/ml; Gram +; read-out: MIC
[2] = test system: Acinetobacter anitratus IID 876; assay: Antibacterial spectra, MIC; details: Acinetobacter calcoaceticus, IID876; 10^6 cells/ml; Gram -; read-out: MIC
[3] = test system: Pseudomonas aeruginosa V-1; assay: Antibacterial spectra, MIC; details: V1, 10^6 cells/ml, Gram -, read-out: MIC
B. fragilis 0558 = assay: Antibacterial spectra, MIC; details: Bacteroides fragilis, 10^6 cells/ml, Gram -, read-out: MIC
P. aeruginosa IFO 12689 = assay: Antibacterial spectra, MIC; details: Pseudomonas aeruginosa, IFO12689; 10^6 cells/ml; Gram -; read-out: MIC
[4] = test system: Salmonella enteritidis IID 604; assay: Antibacterial spectra, MIC; details: Salmonella enterica; 10^6 cells/ml; Gram -; read-out: MIC
[5] = test system: Alcaligenes faecalis 0114002; assay: Antibacterial spectra, MIC; details: 10^6 cells/ml, Gram -, read-out: MIC
[6] = test system: Eubacterium lentum GAI 5242; assay: Antibacterial spectra, MIC; details: Eggerthella lenta, GAI5242
[7] = test system: Escherichia coli NIHJ JC-2; assay: Antibacterial spectra, MIC; details: NIHJJC2
B. vulgatus KYA 29327 = assay: Antibacterial spectra, MIC; details: Phocaeicola vulgatus, KYA29327; 10^6 cells/ml; Gram -; read-out: MIC
[8] = test system: B. thetaiotaomicron (0661); assay: Antibacterial spectra, MIC; details: Bacteroides thetaiotaomicron; 10^6 cells/ml; Gram -; read-out: MIC
K. pneumoniae 1-220S = assay: Antibacterial spectra, MIC; details: Klebsiella pneumoniae, 1220S; 10^6 cells/ml; Gram -; read-out: MIC
[9] = test system: Peptococcus magnus KY 017; assay: Antibacterial spectra, MIC; details: Finegoldia magna, KY017; 10^6 cells/ml; Gram +; read-out: MIC
[10] = test system: Veillonella parvula KYA 10790; assay: Antibacterial spectra, MIC; details: KYA10790, 10^6 cells/ml, Gram -, read-out: MIC
F. necrophorum S-45 = assay: Antibacterial spectra, MIC; details: Fusobacterium necrophorum, S45; 10^6 cells/ml; Gram -; read-out: MIC
S. epidermidis IID 866 = assay: Antibacterial spectra, MIC; details: Staphylococcus epidermidis, IID866; 10^6 cells/ml; Gram +; read-out: MIC
C. perfringens KYA 13123 = assay: microbe, parasite or virus in culture; details: Clostridium perfringens, KYA13123
[11] = test system: Streptococcus pyogenes (S-8); assay: Antibacterial spectra, MIC; details: 10^6 cells/ml, Gram +
Method: (§1) The antibacterial test was carried out according to the method designated by Japan Society of Chemotherapy.

E. faecalis IID 682 = assay: Antibacterial spectra, MIC; details: Enterococcus faecalis, IID682; 10^6 cells/ml; Gram +
Method: as §1

E. coli ML 4707 = assay: Antibacterial spectra, MIC; details: Escherichia coli, ML4707; 10^6 cells/ml; Gram -
Method: as §1

[12] = test system: Proteus vulgaris IFO 3167; assay: Antibacterial spectra, MIC; details: IFO3167, 10^6 cells/ml, Gram -
Method: as §1

Shigella sonnei IID 969 = assay: Antibacterial spectra, MIC; details: IID969, 10^6 cells/ml, Gram -
Method: as §1

P. cepacia GIFU 518 = assay: Antibacterial spectra, MIC; details: Burkholderia cepacia, GIFU518; 10^6 cells/ml; Gram -; read-out: MIC
[13] = test system: Peptostreptococcus anaerobius KYA 27337; assay: Antibacterial spectra, MIC; details: KYA27337, 10^6 cells/ml, Gram +, read-out: MIC
Pst. micros UPI 5464-1 = assay: Antibacterial spectra, MIC; details: Parvimonas micra, UPI54641; 10^6 cells/ml; Gram +; read-out: MIC
[14] = test system: Serratia marcescens IID 618; assay: Antibacterial spectra, MIC; details: IID618, 10^6 cells/ml, Gram -, read-out: MIC
B. fragilis 25285 = assay: Antibacterial spectra, MIC; details: Bacteroides fragilis, 10^6 cells/ml, Gram -, read-out: MIC
[15] = test system: S. aureus IID 670 (Terajima); assay: Antibacterial spectra, MIC; details: Staphylococcus aureus, IID670; 10^6 cells/ml; Gram +; read-out: MIC
[16] = test system: Fusobacterium mortiferum 4249; assay: Antibacterial spectra, MIC; details: 10^6 cells/ml, Gram -, read-out: MIC
B. distasonis 8503 = assay: Antibacterial spectra, MIC; details: Parabacteroides distasonis, 10^6 cells/ml, Gram -, read-out: MIC
E. coli ATCC 10536 = assay: Antibacterial spectra, MIC; details: Escherichia coli, ATCC10536
[17] = test system: Morganella morganii IID 602; assay: Antibacterial spectra, MIC; details: IID602, 10^6 cells/ml, Gram -, read-out: MIC
[18] = test system: Citrobacter freundii IID 976; assay: Antibacterial spectra, MIC; details: IID976, 10^6 cells/ml, Gram -, read-out: MIC

Measured: MIC

CCOc1c(N2CCNCC2)c(F)cc2c(=O)c(C(=O)O)cn(C3CC3)c12 [Exp. 18, 1-cyclopropyl-6-fluoro-1,4-dihydro-8-ethoxy-4-oxo-7-(1-piperazinyl)-3-quinolinecarboxylic acid]
0.2 µg/mL: K. pneumoniae 1-220S | [14]
0.39 µg/mL: S. epidermidis IID 866 | [15] | [17]
0.1 µg/mL: [2] | [4] | [18]
12.5 µg/mL: B. fragilis 0558 | B. vulgatus KYA 29327 | [8] | B. distasonis 8503
1.56 µg/mL: [6] | C. perfringens KYA 13123 | [11] | E. faecalis IID 682
6.25 µg/mL: P. aeruginosa IID 1210
3.13 µg/mL: P. aeruginosa IFO 12689 | F. necrophorum S-45 | P. cepacia GIFU 518 | [13] | B. fragilis 25285 | [16]
0.78 µg/mL: S. pneumoniae IID 552 | [3] | [5] | [9] | [10] | Pst. micros UPI 5464-1
25 µg/mL: F. varium KYA 8501
≤ 0.05 µg/mL: all other assays above
